Laboratory results: US12268690B2, “Treatments for mutations in acute myeloid leukemia” (OREGON HEALTH & SCIENCE UNIVERSITY, priority 2018, dated 2025)

Tested on: freshly isolated mononuclear cells from AML samples
Assay: Ex vivo functional drug screen (MTS viability, AUC) on primary AML samples, compared by mutation or clinical group
Format: cell-based, human
Excerpt: This panel contained graded concentrations of a drugs with activity against two-thirds of the tyrosine kinome as well as other non-tyrosine kinase pathways, including MAPKs, PI3K/AKT/mTOR, AMPK, ATM, Aurora kinases, CAMKs, CDKs, GSK3a/b, IκK, PKA, PKC, PLK1, and RAF. In addition, the library contained small molecule inhibitors with activity against the BCL2 family, BRD4, Hedgehog, HSP90, NOTCH/gamma-secretase, proteasome, survivin, STAT3, and WNT/beta-catenin. Drug sensitivity patterns were analyzed with respect to clinical and genetic features of tumors. We compared the average area-under-the curve (AUC) values for each drug between the de novo and transformed samples via a series of single factor ANOVAs. […] In addition, we analyzed the concordance of drug sensitivity patterns with respect to predicted target gene, gene family, or pathway for each drug. […] To create a global view of overall sensitivity or resistance of each case, we generated a heatmap of binary sensitive/resistant calls for each sample to each drug.
Correlation of drug sensitivity with mutational events was performed by assessing the range of sensitivity of cases with mutation of an individual gene (as well as co-occurring mutational events) versus cases with wild type sequence for that same gene. […] The difference in average drug sensitivity of mutant versus wild type cases for each drug/mutation pair was plotted on the horizontal axis of a volcano plot with a test for statistical significance of the comparison plotted on the vertical axis (corrected for multiple comparison false discovery rate^42; FIG. 4). […] To aid in discovery of potential mutational biomarkers of drug sensitivity, we plotted volcano plots that were specific to each individual drug (versus all possible mutational events) and for each individual gene (versus all possible drugs tested).
Ex vivo drug screens were performed on freshly isolated mononuclear cells from AML samples as previously described^41.
Ex vivo functional drug screens were performed on freshly isolated mononuclear cells from AML samples. […] Drug plates were created using inhibitors purchased from LC Laboratories and Selleck Chemicals and master stocks were reconstituted in DMSO and stored at −80° C. […] DMSO control wells and positive control wells containing a drug combination of Flavopiridol, Staurosporine and Velcade were placed on each plate, with the final concentration of DMSO ≤0.1% in all wells. Daughter plates were created using a V&P Scientific 384-well pin tool head operated by the Caliper Sciclone ALH 3000 and equipped with 0.457 mm diameter, 30 nanoliter, slotted stainless steel pins (cat num: FP1NS30). Daughter and destination plates were sealed with pealable thermal seals using a PlateLoc thermal sealer. Destination plates were stored at −20° C. for no more than three months and thawed immediately before use. Primary mononuclear cells were plated across single-agent inhibitor panels within 24 h of collection. […] After 3 d of culture at 37° C. in 5% CO2, MTS reagent (CellTiter96 AQueous One; Promega) was added, optical density was measured at 490 nm, and raw absorbance values were adjusted to a reference blank value and then used to determine cell viability (normalized to untreated control wells).
A given sample was run on one or more panels and within each panel, the majority of drugs were run without within-panel replicates. […] An additional set of ‘curve-free’ AUCs was computed for sample-inhibitor pairs run on multiple panels.
Based on the methodology used in our prior drug combination study^36, a probit regression was fit to all possible run groups using the model: (normalized_viability/100)˜1+log 10(concentration) Where for all groups there were N=7 dose-response measurements. The summary measures of curve fit were inspected and cutoffs were devised removing all runs with an AIC >12 and deviance >2.

SMILES | drug sensitivity mutant vs wild type (average difference in AUC; top left quadrant of volcano plot) (FLT3_ITD) | drug sensitivity mutant vs wild type (average difference in AUC; top left quadrant of volcano plot) (FLT3_ITD_IHD2) | drug sensitivity mutant vs wild type (average difference in AUC; top left quadrant of volcano plot) (IDH2) | drug sensitivity mutant vs wild type (average difference in AUC; top left quadrant of volcano plot) (NPM1) | drug sensitivity mutant vs wild type (average difference in AUC; top left quadrant of volcano plot) (NPM1:FLT3_ITD) | drug sensitivity mutant vs wild type (average difference in AUC; top left quadrant of volcano plot) (NPM1:FLT3_ITD:DNMT3A) | drug sensitivity mutant vs wild type (average difference in AUC; top left quadrant of volcano plot) (NPM1:IDH2) | drug sensitivity mutant vs wild type (average difference in AUC; top left quadrant of volcano plot) (NPM1:SRSF2) | drug sensitivity mutant vs wild type (average difference in AUC; top left quadrant of volcano plot) (NPM1:DNMT3A) | other results
COc1cc(N2CCC(N3CCN(C)CC3)CC2)ccc1Nc1ncc(Cl)c(Nc2ccccc2S(=O)(=O)C(C)C)n1 [NVP-TAE684] | NVP-TAE684 | Nvp-TAE684 | NVP-TAE684 | NVP-TAE684 | nvp-tae684 | NVP-TAE684 | NVP-TAE684 | nvp-TAE684 |  | drug sensitivity mutant vs wild type (average difference in AUC; top left quadrant of volcano plot) (FLT3_ITD:DNMT3A): NVP-TAE684; drug sensitivity mutant vs wild type (average difference in AUC; top left quadrant of volcano plot) (FLT3_ITD:FLT3): nvp-TAE684; drug sensitivity mutant vs wild type (average difference in AUC; top left quadrant of volcano plot) (FLT3_ITD:RUNX1): nvp-TAE684; drug sensitivity mutant vs wild type (average difference in AUC; top left quadrant of volcano plot) (FLT3_ITD:TET2): nvp-tae684; drug sensitivity mutant vs wild type (average difference in AUC; top left quadrant of volcano plot) (IDH2:FLT3): NVP-TAE684; drug sensitivity mutant vs wild type (average difference in AUC; top left quadrant of volcano plot) (NPM1:FLT3): NVP-TAE684; drug sensitivity mutant vs wild type (average difference in AUC; top left quadrant of volcano plot) (NPM1:SRSF2:IDH2): NVP-
CCS(=O)(=O)O.COC(=O)c1ccc2c(c1)NC(=O)/C2=C(\Nc1ccc(N(C)C(=O)CN2CCN(C)CC2)cc1)c1ccccc1 [Vargetef] | vargetef | vargetef | Vargetef | Vagetef | vargetef | vargetef | Vargetef | Vargetef |  | drug sensitivity mutant vs wild type (average difference in AUC; top left quadrant of volcano plot) (FLT3_ITD:DNMT3A): vargetef; drug sensitivity mutant vs wild type (average difference in AUC; top left quadrant of volcano plot) (FLT3_ITD:FLT3): vargetef; drug sensitivity mutant vs wild type (average difference in AUC; top left quadrant of volcano plot) (FLT3_ITD:TET2): vargetef; drug sensitivity mutant vs wild type (average difference in AUC; top left quadrant of volcano plot) (FLT3_ITD:TET2:DNMT3A): Vargetef; drug sensitivity mutant vs wild type (average difference in AUC; top left quadrant of volcano plot) (NPM1:FLT3_ITD:TET2): vargetef; drug sensitivity mutant vs wild type (average difference in AUC; top left quadrant of volcano plot) (NPM1:TET2: DNMT3A): Vargetef
Cn1cc(-c2ccc3nnc(Sc4ccc5ncccc5c4)n3n2)cn1 [SGX-523, 6-((6-(1-methyl-1H-pyrazol-4-yl)-[1,2,4]triazolo[4,3-b]pyridazin-3-yl)thio)quinoline] |  |  |  |  |  |  | SGX-523 | SGX-523 |  | drug sensitivity mutant vs wild type (average difference in AUC; top left quadrant of volcano plot) (NPM1:CEBPA): SGX-523; drug sensitivity mutant vs wild type (average difference in AUC; top left quadrant of volcano plot) (NPM1:SRSF2:IDH2): SGX-523
CS(=O)(=O)CCNCc1ccc(-c2ccc3ncnc(Nc4ccc(OCc5cccc(F)c5)c(Cl)c4)c3c2)o1 [Lapatinib] |  | lapitinib |  | Lapatinib | lapatinib |  | Lapatinib | Lapatinib |  | drug sensitivity mutant vs wild type (average difference in AUC; top left quadrant of volcano plot) (SMC1A): lapatinib
CC[C@H](CO)Nc1nc(NCc2ccccc2)c2ncn(C(C)C)c2n1 [Roscovitine] | roscovitine |  |  |  |  |  |  |  |  | drug sensitivity mutant vs wild type (average difference in AUC; top left quadrant of volcano plot) (NPM1:IDH1): roscovitine; drug sensitivity mutant vs wild type (average difference in AUC; top left quadrant of volcano plot) (ZRSR2): Roscovitine
Cn1c2ccccc2c2c3c(c4c5ccccc5n(CCC#N)c4c21)CNC3=O [Go6976] |  |  |  |  |  |  |  |  |  | drug sensitivity mutant vs wild type (average difference in AUC; top left quadrant of volcano plot) (CBFB.MYH11): Go6976
Cc1cc(Nc2cc(N3CCN(C)CC3)nc(Sc3ccc(NC(=O)C4CC4)cc3)n2)[nH]n1 [Tozasertib] | Tozasertib | tozasertib | Tozasertib |  |  | tozasertib |  | Tozasertib |  | drug sensitivity mutant vs wild type (average difference in AUC; top left quadrant of volcano plot) (FLT3_ITD:DNMT3A): tozasertib
CNC(=O)c1cc(Oc2ccc(NC(=O)Nc3ccc(Cl)c(C(F)(F)F)c3)cc2)ccn1 [Sorafenib] |  |  |  | Sorafenib |  |  | sorafenib | sorafenib | Sorafenib | drug sensitivity mutant vs wild type (average difference in AUC; top left quadrant of volcano plot) (DNMT3A): Sorafenib; drug sensitivity mutant vs wild type (average difference in AUC; top left quadrant of volcano plot) (NPM1:TET2): Sorafenib
CCOc1cc2ncc(C#N)c(Nc3ccc(F)c(Cl)c3)c2cc1NC(=O)/C=C/CN(C)C [Pelitinib] | pelitinib |  |  | Pelitinib | pelitinib |  |  |  |  | 
Nc1nc(Nc2ccc(S(N)(=O)=O)cc2)nn1C(=O)c1c(F)cccc1F [JNJ-7706621, 4-((5-amino-1-(2,6-difluorobenzoyl)-1H-1,2,4-triazol-3-yl)amino)benzenesulfonamide] |  |  |  |  |  |  |  |  | JNJ-7706621 | drug sensitivity mutant vs wild type (average difference in AUC; top left quadrant of volcano plot) (NPM1:IDH1): JNJ-7706621
CCn1c(-c2nonc2N)nc2c(C#CC(C)(C)O)ncc(OC[C@H]3CCCNC3)c21 [GSK690693] |  |  |  |  |  |  |  |  |  | drug sensitivity mutant vs wild type (average difference in AUC; top left quadrant of volcano plot) (MLLT3.KMT2A): GSK690693
CNC(=O)c1cc(Oc2ccc(NC(=O)Nc3ccc(Cl)c(C(F)(F)F)c3)c(F)c2)ccn1 [Regorafenib] | regorafenib |  |  | Regorafenib | regorafenib | regorafenib | regorafenib | regorafenib | Regorafenib | drug sensitivity mutant vs wild type (average difference in AUC; top left quadrant of volcano plot) (NPM1:TET2: DNMT3A): Regorafenib
c1cn2cc(-c3ccc4cn[nH]c4c3)nc(Nc3ccc(N4CCOCC4)cc3)c2n1 [Entospletinib, 6-(1H-indazol-6-yl)-N-(4-morpholin-4-ylphenyl)imidazo[1,2-a]pyrazin-8-amine] |  |  | Entospletinib | Entospletinib |  |  | entospetinib | entospetinib | Entospletinib | drug sensitivity mutant vs wild type (average difference in AUC; top left quadrant of volcano plot) (DNMT3A): Entospletinib; drug sensitivity mutant vs wild type (average difference in AUC; top left quadrant of volcano plot) (DNMT3A:IDH2): Entospletinib (GS-9973); drug sensitivity mutant vs wild type (average difference in AUC; top left quadrant of volcano plot) (NPM1:IDH1): entospletinib; drug sensitivity mutant vs wild type (average difference in AUC; top left quadrant of volcano plot) (NPM1:TET2: DNMT3A): Entospetinib; pattern of drug sensitivity (cases with FLT3-ITD and NPM1): similarly significant pattern of sensitivity
